Consider 22 compounds from ChEMBL document CHEMBL3400035, “Synthesis, in vitro anticancer and antimycobacterial evaluation of new 5-(2,5-dimethoxyphenyl)-1,3,4-thiadiazole-2-amino derivatives” (Bioorg Med Chem Lett, 2015).

Series [1] can be described thus: Cytotoxicity against HEK293 cells assessed as cell growth at 25 uM by MTT assay. It is filed as cell-based. Conditions: human, read-out: Activity. For orientation: Formazan colour is commonly taken as a measure of viable cells.
Series [2] deals with MDA-MB-231. Description: Cytotoxicity against human MDA-MB-231 cells assessed as growth inhibition at 25 uM by MTT assay. It is filed as functional. Conditions: read-out: GI.
For series [3], the system named is Mycolicibacterium smegmatis. Description: Anti-tubercular activity against Mycobacterium smegmatis str. MC2 155 relative to untreated control. The series is classed as functional.
In series [4] the test system is Mycolicibacterium smegmatis. Description: Anti-tubercular activity against Mycobacterium smegmatis str. MC2 155. It is filed as functional, organism-based.
The subject of another series is HT-29. Briefly: Cytotoxicity against human HT-29 cells assessed as growth inhibition at 25 uM by MTT assay. The series is classed as functional. Conditions: read-out: GI.
For series [5], the system named is Mycolicibacterium smegmatis. Description: Anti-tubercular activity against Mycobacterium smegmatis str. MC2 155 at 30 uM. The series is classed as functional, organism-based.
Series [6] relates to MDA-MB-231. Description: Cytotoxicity against human MDA-MB-231 cells assessed as growth inhibition by MTT assay. It is filed as functional, cell-based.

The source made the active and inactive calls. No cut-off for these calls is given here. Where only a bound is given, the exact number is not on record here.

Turning to `COc1ccc(OC)c(-c2nnc(N3CCOCC3)s2)c1`, the viability at 25 µM in series [1] is more than 74.5%. The inhibition of growth at 25 µM with MDA-MB-231 [2] was determined as 31.2%; with HT-29 it was 18.2%. Also, the “inhibition (INH)” value in series [3] was “>=30%”. Moreover, the IC50 (in general, the concentration that inhibits the measured activity by half) in series [4] is more than 100 µM.
Taken in the same sequence, the figures for `COc1ccc(CN2CCN(c3nnc(-c4cc(OC)ccc4OC)s3)CC2)cc1` were more than 74.5%, 36.5%, 39.8%, “>=30%” and 80.3 µM.
Taken in the same sequence, the figures for `COc1ccc(OC)c(-c2nnc(NCc3ccc(Br)cc3)s2)c1` were less than 74.5%, 51.5%, 45.4%, “>=30%” and more than 100 µM.
Taken in the same sequence, the figures for `COc1ccc(OC)c(-c2nnc(NCc3ccc(Cl)cc3)s2)c1` were less than 74.5%, 53.8%, 68.7%, “>=30%” and more than 100 µM.
Turning to `COc1ccc(OC)c(-c2nnc(N)s2)c1`, in series [1], the viability at 25 µM is more than 74.5%. The values for the inhibition of growth at 25 µM in the series with MDA-MB-231 [2] and with HT-29 were 32% and 20.6%, respectively. In series [3], the “inhibition (INH)” value is on record as “>=30%”. This compound gave a half-inhibitory concentration (IC50) in series [4] of more than 100 µM.
With `COc1ccc(OC)c(-c2nnc(-n3ccc4cc(OC)ccc43)s2)c1`, the inhibition entry in series [5] was “inactive”. Moreover, the viability at 25 µM in series [1] is more than 74.5%. Moreover, the inhibition of growth at 25 µM is 24.7% in the series on MDA-MB-231 [2] and 5.65% in the series on HT-29.
On the same counts, the results for `COc1ccc(OC)c(-c2nnc(-n3ccnc3)s2)c1` are “inactive”, more than 74.5%, 33.5% and 21%.
As for `COc1ccc(OC)c(-c2nnc(Cl)s2)c1`, in series [1], the viability at 25 µM is more than 74.5%. In addition, the inhibition of growth at 25 µM with MDA-MB-231 [2] is 33.7%; in the series on HT-29, 8.81%. Moreover, the “inhibition (INH)” value in series [3] is recorded as “>=30%”. Also, the IC50 in series [4] was determined as 75.6 µM.
Taken in the same sequence, the figures for `COc1ccc(OC)c(-c2nnc(NCc3cccc(C(F)(F)F)c3)s2)c1` were less than 74.5%, 51.2%, 52.6%, “>=30%” and 40.9 µM.
On to `COc1ccc(OC)c(CNc2nnc(-c3cc(OC)ccc3OC)s2)c1`, for which the viability at 25 µM in series [1] was more than 74.5%. In addition, the inhibition of growth at 25 µM in the series on MDA-MB-231 [2] was 30.2%; in the series with HT-29 it was 47.2%. In series [3], the “inhibition (INH)” value is recorded as “>=30%”. The concentration for half-maximal inhibition (IC50) in series [4] was more than 100 µM.
Consider `COc1ccc(OC)c(-c2nnc(NCc3ccccc3)s2)c1`, for which, in series [1], the viability at 25 µM was less than 74.5%. For the same compound, the values for the inhibition of growth at 25 µM in the series on MDA-MB-231 [2] and in the series with HT-29 were 63% and 68.3%, respectively. In addition, in series [3], the “inhibition (INH)” value was “>=30%”. The IC50 in series [4] was 75.6 µM.
Consider `COc1ccc(OC)c(-c2nnc(N3CCCCC3)s2)c1`, for which the inhibition result in series [5] was “inactive”. Further, the viability at 25 µM in series [1] was more than 74.5%. For the same compound, the inhibition of growth at 25 µM in the series with MDA-MB-231 [2] turned out to be 32.8%; with HT-29, 3.67%.
Regarding `CCN1CCN(c2nnc(-c3cc(OC)ccc3OC)s2)CC1`, the viability at 25 µM in series [1] was more than 74.5%. Also, the inhibition of growth at 25 µM turned out to be 34.6% with MDA-MB-231 [2] and 9.91% in the series on HT-29. For the same compound, the “inhibition (INH)” value in series [3] is on record as “>=30%”. In series [4], the IC50 was more than 100 µM.
On to `COc1cccc2c1C(=O)c1c(O)c3c(c(O)c1C2=O)C[C@@](O)(C(=O)CO)C[C@@H]3O[C@H]1C[C@H](N)[C@H](O)[C@H](C)O1` [DOXORUBICIN], for which the IC50 in the series with MDA-MB-231 [6] stood at 1 µM.
As to `COc1ccc(OC)c(-c2nnc(N3CCCC3)s2)c1`, in series [5], the inhibition entry is “inactive”. In addition, the viability at 25 µM in series [1] is more than 74.5%. Further, the inhibition of growth at 25 µM in the series on MDA-MB-231 [2] is 38.1%; in the series on HT-29, 18.8%.
On to `COc1ccc(OC)c(-c2nnc(N3CCNCC3)s2)c1`, for which the viability at 25 µM in series [1] is more than 74.5%. Also, the values for the inhibition of growth at 25 µM in the series with MDA-MB-231 [2] and in the series with HT-29 were 41.6% and 25.5%, respectively. Besides, the “inhibition (INH)” value in series [3] is “>=30%”. For the same compound, half-maximal inhibition in series [4] (IC50) required 88.1 µM.
Taken in the same sequence, the figures for `COc1ccc(OC)c(-c2nnc(N3CCCC(O)C3)s2)c1` (stereo not drawn) were more than 74.5%, 39.7%, 31.1%, “>=30%” and more than 100 µM.
Compound `CO[C@H]1/C=C/O[C@@]2(C)Oc3c(C)c(O)c4c(O)c(c(/C=N/N5CCN(C)CC5)c(O)c4c3C2=O)NC(=O)/C(C)=C\C=C\[C@H](C)[C@H](O)[C@@H](C)[C@@H](O)[C@@H](C)[C@H](OC(C)=O)[C@@H]1C` [RIFAMPIN] had an IC50 in series [4] of 1.87 µM.
Consider `COc1ccc(OC)c(-c2nnc(N3CCC(=O)CC3)s2)c1`, for which the viability at 25 µM in series [1] was more than 74.5%. In addition, the inhibition of growth at 25 µM in the series with MDA-MB-231 [2] amounted to 32.5%; in the series on HT-29, 33.7%. Besides, in series [3], the “inhibition (INH)” value is reported as “>=30%”. The compound also showed a concentration for half-maximal inhibition (IC50) in series [4] of more than 100 µM.
Compound `NNC(=O)c1ccncc1` [ISONIAZID] had an IC50 in series [4] of 16 µM.
As to `COc1ccc(OC)c(-c2nnc(-c3ccc(C)c([N+](=O)[O-])c3)s2)c1`, in series [5], the inhibition entry was “inactive”. Further, in series [1], the viability at 25 µM was more than 74.5%. The inhibition of growth at 25 µM in the series on MDA-MB-231 [2] turned out to be 53.3%; in the series on HT-29 it was 51.9%.
Regarding `COc1ccc(OC)c(-c2nnc(N3CCC(Cc4ccccc4)CC3)s2)c1`, the viability at 25 µM in series [1] is more than 74.5%. Further, the inhibition of growth at 25 µM with MDA-MB-231 [2] was found to be 33.6%; in the series with HT-29, 51%. Moreover, in series [3], the “inhibition (INH)” value is reported as “>=30%”. The same compound came in with an IC50 in series [4] of 65.7 µM.
